MIC data for eight compounds are collected here from DBAASP.

In brackets after ≈: the same amount, converted by molar mass. Where only a bound is given, the exact number is not on record here.

Among the test systems are Bacillus subtilis; Shigella dysenteriae; Serratia marcescens; Escherichia coli; Candida albicans; Pseudomonas aeruginosa; Micrococcus luteus; Proteus mirabilis; Salmonella typhimurium; Klebsiella pneumoniae.
Test in all cases: ≥ marks a high value that may be exact or a test limit, other limits are often not marked, values filed in µg/mL are converted to µM
Assay [1] concerns Candida albicans ATCC 20032.
Assay [2] deals with Bacillus subtilis ATCC 6633.
The test system of assay [3] is Escherichia coli ATCC 25922.
Assay [4] deals with Staphylococcus aureus ATCC 25923.
Assay [5] relates to Candida albicans NCPF 1467.
The test system of assay [6] is Staphylococcus aureus NCTC 10788.
The test system of assay [7] is Pseudomonas aeruginosa ATCC 27853.
Assay [8] relates to Micrococcus luteus ATCC 10240.
Assay [9] relates to Salmonella enterica subsp. enterica serovar Typhimurium ATCC 14028.
Assay [10] has as its system Staphylococcus epidermidis ATCC 12228.
For assay [11], the system named is Klebsiella pneumoniae ATCC 10031.
Assay [12] relates to Staphylococcus aureus TK784.
Assay [13] has as its system Shigella dysenteriae ATCC 9752.
Assay [14] has as its system Staphylococcus aureus ATCC 6538P.
The test system of assay [15] is Escherichia coli NCTC 10418.

On to `CC[C@H](C)[C@H](NC(=O)CN)C(=O)NCC(=O)N[C@H](C(=O)N[C@@H](CCCCN)C(=O)N[C@@H](Cc1ccccc1)C(=O)N[C@@H](CC(C)C)C(=O)NCC(=O)NCC(=O)N[C@H](C(=O)N[C@@H](CCCCN)C(=O)N[C@H](C(=O)N[C@@H](C)C(=O)N[C@@H](CC(C)C)C(=O)N[C@@H](CCCCN)C(=O)NCC(=O)N[C@@H](C)C(=O)N[C@@H](CC(C)C)C(=O)N[C@@H](CCCCN)C(=O)N[C@@H](CCC(=O)O)C(=O)N[C@@H](CC(C)C)C(=O)N[C@@H](C)C(=O)N[C@@H](Cc1ccccc1)C(=O)N[C@H](C(=O)N[C@@H](Cc1ccc(O)cc1)C(=O)N[C@H](C(=O)N[C@@H](CC(N)=O)C(N)=O)C(C)C)[C@@H](C)O)[C@@H](C)O)C(C)C)[C@@H](C)O` [GIGTKFLGGVKTALKGALKELAFTYVN], for which the MIC (commonly the lowest concentration that inhibits growth of the organism) is ≥ 35.7 µM in assay [1], ≥ 35.7 µM in [2], 13.4 µM (≈ 37.5 µg/mL) in assay [3] and 6.72 µM (≈ 18.8 µg/mL) in assay [4].

As to `CC[C@H](C)[C@H](N)C(=O)N[C@H](C(=O)NCC(=O)N[C@@H](C)C(=O)N[C@H](C(=O)N[C@@H](C)C(=O)N[C@@H](C)C(=O)N[C@@H](C)C(=O)N[C@@H](CC(C)C)C(=O)N1CCC[C@H]1C(=O)N[C@@H](Cc1cnc[nH]1)C(=O)N[C@H](C(=O)N[C@H](C(=O)N[C@@H](CC(N)=O)C(=O)N[C@@H](C)C(=O)N[C@H](C(=O)N[C@@H](CCCCN)C(=O)N[C@@H](CC(N)=O)C(=O)N[C@H](C(=O)N[C@@H](Cc1ccccc1)C(=O)O)[C@@H](C)O)[C@@H](C)CC)[C@@H](C)CC)C(C)C)[C@@H](C)CC)[C@@H](C)CC` [IIGAIAAALPHVINAIKNTF], the MIC in assay [5] was ≥ 120 µM; in assay [6] it was 16 µM (≈ 32.8 µg/mL).

As for `CC[C@H](C)[C@H](NC(=O)CN)C(=O)N[C@@H](Cc1ccccc1)C(=O)N[C@@H](CO)C(=O)N[C@@H](CCCCN)C(=O)N[C@@H](CC(C)C)C(=O)N[C@@H](C)C(=O)NCC(=O)N[C@@H](CCCCN)C(=O)N[C@@H](CCCCN)C(=O)N[C@H](C(=O)N[C@@H](CCCCN)C(=O)N[C@@H](CC(N)=O)C(=O)N[C@@H](CC(C)C)C(=O)N[C@@H](CC(C)C)C(=O)N[C@H](C(=O)N[C@@H](CO)C(=O)NCC(=O)N[C@@H](CC(C)C)C(=O)N[C@@H](CCCCN)C(=O)N[C@@H](CC(N)=O)C(=O)N[C@H](C(=O)NCC(=O)N[C@@H](CCCCN)C(=O)N[C@@H](CCC(=O)O)C(=O)N[C@H](C(=O)NCC(=O)N[C@@H](CCSC)C(=O)N[C@@H](CC(=O)O)C(=O)N[C@H](C(=O)N[C@H](C(=O)N[C@@H](CCCN=C(N)N)C(=O)N[C@H](C(=O)NCC(=O)N[C@H](C(=O)N[C@@H](CC(=O)O)C(=O)N[C@H](C(=O)N[C@@H](C)C(=O)NCC(=O)N[C@H]1CSSC[C@@H](C(=O)O)NC(=O)[C@H](CCC(=O)O)NC(=O)CNC(=O)[C@H](CCCCN)NC(=O)[C@H]([C@@H](C)CC)NC(=O)[C@H](CCCCN)NC1=O)[C@@H](C)CC)[C@@H](C)CC)[C@@H](C)O)C(C)C)C(C)C)C(C)C)[C@@H](C)CC)[C@@H](C)CC)[C@@H](C)CC` [GIFSKLAGKKIKNLLISGLKNIGKEVGMDVVRTGIDIAGCKIKGEC], the MIC in the assay on Bacillus subtilis was 1.31 µM (≈ 6.3 µg/mL); against Shigella dysenteriae, 2.6 µM (≈ 12.5 µg/mL); with Serratia marcescens, ≥ 41.5 µM; with Escherichia coli, 5.19 µM (≈ 25 µg/mL); against Candida albicans, 41.5 µM (≈ 200 µg/mL); in the assay on Pseudomonas aeruginosa, 5.19 µM (≈ 25 µg/mL). Besides, the MIC against Micrococcus luteus was 1.31 µM (≈ 6.3 µg/mL); with Proteus mirabilis, ≥ 41.5 µM; in the assay with Salmonella typhimurium, 5.19 µM (≈ 25 µg/mL); against Klebsiella pneumoniae, 2.6 µM (≈ 12.5 µg/mL).

`CC[C@H](C)[C@H](N)C(=O)N[C@@H](CC(C)C)C(=O)NCC(=O)N1CCC[C@H]1C(=O)N[C@H](C(=O)N[C@@H](CC(C)C)C(=O)NCC(=O)N[C@@H](CC(C)C)C(=O)N[C@H](C(=O)NCC(=O)N[C@@H](CC(N)=O)C(=O)N[C@@H](C)C(=O)N[C@@H](CC(C)C)C(=O)NCC(=O)NCC(=O)N[C@@H](CC(C)C)C(=O)N[C@H](C(=O)N[C@@H](CCCCN)C(=O)N[C@@H](CCCCN)C(=O)N[C@@H](CC(C)C)C(N)=O)[C@@H](C)CC)C(C)C)C(C)C` [ILGPVLGLVGNALGGLIKKL]: the MIC in assay [1] was 4.83 µM (≈ 9.4 µg/mL); in assay [2], 9.66 µM (≈ 18.8 µg/mL); in assay [3] it was > 51.4 µM; in assay [4] it was 4.83 µM (≈ 9.4 µg/mL).

For `CC[C@H](C)[C@H](N)C(=O)N[C@@H](CC(C)C)C(=O)NCC(=O)N1CCC[C@H]1C(=O)N[C@H](C(=O)N[C@@H](CC(C)C)C(=O)NCC(=O)N[C@@H](CC(C)C)C(=O)N[C@H](C(=O)NCC(=O)N[C@@H](CO)C(=O)N[C@@H](C)C(=O)N[C@@H](CC(C)C)C(=O)NCC(=O)NCC(=O)N[C@@H](CC(C)C)C(=O)N[C@H](C(N)=O)[C@@H](C)CC)C(C)C)C(C)C` [ILGPVLGLVGSALGGLI], the minimum inhibitory concentration (MIC) in assay [1] was ≥ 64.6 µM; in assay [2], ≥ 64.6 µM; in assay [3], > 64.6 µM; in assay [4] it was > 64.6 µM.

With `CC(C)C[C@H](NC(=O)[C@H](Cc1c[nH]c2ccccc12)NC(=O)[C@H](CCCCN)NC(=O)[C@H](CC(C)C)NC(=O)[C@H](CC(C)C)NC(=O)[C@H](CCCCN)NC(=O)[C@H](CCCCN)NC(=O)[C@H](CC(C)C)NC(=O)[C@H](CC(C)C)NC(=O)[C@H](CCCCN)NC(=O)[C@@H](N)CCCCN)C(N)=O` [KKLLKKLLKWL], the MIC in [7] amounted to 2.84 µM (≈ 4 µg/mL); in assay [8] it was 1.42 µM (≈ 2 µg/mL); in assay [9], 0.709 µM (≈ 0.999 µg/mL); in assay [10], 0.709 µM (≈ 0.999 µg/mL); in [11] it was 1.42 µM (≈ 2 µg/mL); in assay [12] it was 2.84 µM (≈ 4 µg/mL). The MIC in assay [2] stood at 0.709 µM (≈ 0.999 µg/mL); in [13] it was 0.709 µM (≈ 0.999 µg/mL); in [3], 1.42 µM (≈ 2 µg/mL); in [14], 0.709 µM (≈ 0.999 µg/mL).

Take `CC[C@H](C)[C@H](NC(=O)[C@H](CO)NC(=O)[C@H](CC(N)=O)NC(=O)[C@@H](NC(=O)[C@H](Cc1ccccc1)NC(=O)[C@H](C)NC(=O)[C@H](CO)NC(=O)[C@H](C)NC(=O)[C@H](Cc1ccccc1)NC(=O)[C@H](CC(C)C)NC(=O)[C@H](CCCCN)NC(=O)[C@H](C)NC(=O)CNC(=O)[C@H](CC(C)C)NC(=O)[C@H](CCCCN)NC(=O)[C@H](CC(C)C)NC(=O)[C@H](CCCCN)NC(=O)[C@H](CC(C)C)NC(=O)[C@H](CC(C)C)NC(=O)[C@H](Cc1ccccc1)NC(=O)CN)C(C)C)C(=O)N[C@@H](CCCCN)C(N)=O` [GFLLKLKLGAKLFASAFVNSIK]: the figures for the MIC in [15], in assay [5] and in [6] were 13.5 µM (≈ 32 µg/mL), 6.76 µM (≈ 16 µg/mL) and 6.76 µM (≈ 16 µg/mL), respectively.

Regarding `CC(C)C[C@H](NC(=O)[C@H](CC(C)C)NC(=O)[C@H](Cc1c[nH]c2ccccc12)NC(=O)[C@H](CCCCN)NC(=O)[C@H](CC(C)C)NC(=O)[C@H](CC(C)C)NC(=O)[C@H](Cc1c[nH]c2ccccc12)NC(=O)[C@H](CCCCN)NC(=O)[C@H](CC(C)C)NC(=O)[C@@H](N)CC(C)C)C(=O)N[C@@H](CCCCN)C(N)=O` [LLKWLLKWLLK], the MIC in [7] is > 55 µM; in [8], 1.72 µM (≈ 2.5 µg/mL); in assay [9], > 55 µM; in [10] it was 0.894 µM (≈ 1.3 µg/mL); in assay [11], ≥ 55 µM; in [12] it was 3.44 µM (≈ 5 µg/mL). For the same compound, the minimal inhibitory concentration (MIC) in [2] was 0.894 µM (≈ 1.3 µg/mL); in assay [13], ≥ 55 µM; in [3], > 55 µM; in assay [14], 1.72 µM (≈ 2.5 µg/mL).
